# Data published in article PMC10821019, “F16 Hybrids Derived from Steviol or Isosteviol Are Accumulated in the Mitochondria of Tumor Cells and Overcome Drug Resistance” (Molecules, 2024).
# Values joined by “and” are separate entries in the source; they are usually repeats but may differ in a detail not shown here. Equal entries are not always repeated.
# Columns and labels:
# [1] = SRB cytotoxicity assay, CCD18Co; type: cell-based, human; conditions: human, CCD18Co non-malignant fibroblasts, 72 h treatment, mean n = 3, SD 5-10%
# Excerpt: (§1) All compounds were screened for their cytotoxic activity and tumor cell selectivity using our standard model, previously described, comprising a selection of human tumor cell lines representing different solid tumor entities and non-malignant human fibroblasts (CCD18Co) including the cell line pair A2780/A2780cis, a well-known model of acquired drug resistance.
# (§2) Reagents were bought from commercial suppliers and used without further purification. The solvents were dried according to the usual procedures. TLC was performed on silica gel (Macherey-Nagel, detection with UV absorption; Macherey-Nagel, Düren, Germany). […] Numbering in the NMR spectra: 1–20 (diterpene core), 21–24 for O-(CH2)n-N fragment followed by the pyridinium ring, the ethenyl moiety and the indole moiety. […] IR spectra were recorded on a Perkin-Elmer Spectrum Two (UATR Two Unit, Perkin-Elmer GmbH, Rodgau, Germany). […] Both media were supplemented with 10% fetal bovine serum (Biowest, Nuaillé, France) and 1% penicillin-streptomycin (Sigma-Aldrich).
# (§3) Cytotoxic activities of compounds were analyzed using the SRB cytotoxicity assay. Cells were seeded in 96-well plates and after 24 h were treated with serial dilutions of compounds for 72 h. All subsequent steps were performed according to the previously described SRB assay protocol. Dose–response curves and calculation of IC50 values, including standard deviations, were carried out using GraphPad Prism8.
# [2] = tested on: A2780 (ovarian carcinoma); experiment: SRB cytotoxicity assay, A2780; type: cell-based, human; conditions: for selectivity index 1 (SI 1): CCD18Co/A2780; for IC50: SRB assay, 72 h treatment, mean n = 3, SD 5-10%; for tumor cell selectivity, in words: tumor cells vs non-malignant fibroblasts CCD18Co
# Excerpt: as §1, §2, §3
# MCF7 (breast carcinoma) = experiment: SRB cytotoxicity assay, MCF7; type: cell-based, human; conditions: mean n = 3, SD 5-10%
# Excerpt: as §1, §2, §3
# [3] = tested on: A2780cis (resistant derivative of A2780); experiment: SRB cytotoxicity assay, A2780cis; type: cell-based, human; conditions: for IC50: SRB assay, 72 h treatment, mean n = 3, SD 5-10%; for resistance index (RI): quotient IC50 values A2780cis/A2780; for drug resistance in the A2780/A2780cis model, in words: A2780cis vs A2780
# Excerpt: as §1, §2, §3
# A549 (lung carcinoma) = experiment: SRB cytotoxicity assay, A549; type: cell-based, human; conditions: for selectivity index 2 (SI 2): CCD18Co/A549; for IC50: SRB assay, 72 h treatment, mean n = 3, SD 5-10%
# Excerpt: as §1, §2, §3
# [4] = tested on: HT29 (colorectal carcinoma); experiment: SRB cytotoxicity assay, HT29; type: cell-based, human; conditions: mean n = 3, SD 5-10%
# Excerpt: as §1, §2, §3
# A549 cells = experiment: Subcellular localization, live cell fluorescence imaging with AHCS2 and Hoechst 33342; type: cell-based, human; conditions: 24 h, 10 µM of 5 or 1 µM of 17 or 25, together with 20 nM AHCS2, Hoechst 33342
# Excerpt: Next, the subcellular accumulation of compounds 17 and 25 compared to 5 (F16 group) was studied, employing the fluorescent characteristics mediated by the F16 group. Expecting a mitochondrial accumulation of the compounds, our previously described strong mitochondria-targeted and NIR fluorescent agent/mitocan AHCS2 (compound 21 in ref. [4]) was used, thus enabling simultaneous analysis and direct comparison due to different fluorescence spectra.
# Analysis of subcellular localization of compounds was performed in A549 cells using the established mitochondrial targeting compound AHCS2 [4] for direct comparison. For all procedures, RPMI 1640 media without phenol-red (Pan-Biotech GmbH, Aidenbach, Germany) was used. Cells were seeded in a µ-Plate 96-well black plate (ibiTreat: #1.5 polymer coverslip bottom, ibidi GmbH, Gräfelfing, Germany) at a cell density of 30.000 per well. After 24 h, cells were treated with 10 µM of compound 5 or 1 µM of compound 17 or 1 µM of compound 25, each together with 20 nM of compound AHCS2. After 24 h, Hoechst 33342 (Sigma-Aldrich) was added and live cell imaging was performed on an Axio Observer 7 (Carl Zeiss Microscopy Deutschland GmbH, Oberkochen, Germany) using the settings for Ex/Em, as follows: Hoechst 33342 (385 nm/425 nm), F16 compounds (475 nm/514 nm), AHCS2 (735 nm/785 nm). For simultaneous analysis, multiple Z-stacked images were taken and resulting pictures were reconstructed using the ZEN 3.5 pro software (Zeiss).
# [5] = tested on: CCD18Co (non-malignant human fibroblasts); experiment: SRB cytotoxicity assay, CCD18Co; type: cell-based; conditions: 72 h treatment, mean n = 3, SD 5-10%
# Excerpt: as §1, §2, §3
# [6] = Homo sapiens, MCF7, 72 h treatment
# [7] = Homo sapiens, HT-29, 72 h treatment
melting point [°C],Compound,IC50 at 72 h [1] [nM],selectivity index 1 (SI 1) [2],"IC50 ([2]; Homo sapiens, A2780) [nM]",IC50 (MCF7 (breast carcinoma); [6]) [nM],"IC50 ([3]; Homo sapiens, A2780cis) [nM]",resistance index (RI) [3],selectivity index 2 (SI 2) (A549 (lung carcinoma)),"IC50 (A549 (lung carcinoma); Homo sapiens, A549) [nM]","IC50 [4, 7] [nM]",resistance index (RI) ([3]; listed as doxorubicin),subcellular accumulation (A549 cells),IC50 [5] [nM],IC50 [2] [nM],"tumor cell selectivity, in words [2]",IC50 (MCF7 (breast carcinoma); 72 h treatment) [nM],"drug resistance in the A2780/A2780cis model, in words [3]",IC50 [3] [nM],IC50 (A549 (lung carcinoma)) [nM],IC50 ([4]; 72 h treatment) [nM]
185 to 187,"C(=C\c1c[nH]c2ccccc12)/c1ccccn1 [Compound 3, 3-[(E)-2-Pyridin-2-yl-ethenyl]-1H-indole]",87400,73.27,1190,1120,39200,32.88,3.33,26300,28700,–,–,–,–,–,–,–,–,–,–
–,"COc1cccc2c1C(=O)c1c(O)c3c(c(O)c1C2=O)C[C@@](O)(C(=O)CO)C[C@@H]3O[C@H]1C[C@H](N)[C@H](O)[C@H](C)O1 [DOX, doxorubicin, reference compound]",242,32.7,7,83,109,14.7,13.9,17,98,approximately 14,–,–,–,–,–,–,–,–,–
254 to 255,"C(=C\c1c[nH]c2ccccc12)/c1ccncc1 [Compound 5, 3-[(E)-2-Pyridin-4-yl-ethenyl]-1H-indole]",100000,44.21,2260,10900,16400,7.26,6.49,15400,16500,–,preferential mitochondrial localization,–,–,–,–,–,–,–,–
–,"CC12CCC3C(CCC4C(C)(C(=O)OCCCC[n+]5ccc(C=Cc6c[nH]c7ccccc67)cc5)CCCC34C)(CC1=O)C2.[Br-] (stereo not drawn) [Compound 25, 4-{4[(E)-2-(1H-Indol-3-yl)ethenyl]-pyridinium-1-yl}butyl (4α, 8β, 13β) 13-Methyl-16-oxo-17-norkauran-18-oate Bromide]",–,59 and 59.32,–,–,–,1.70,4.14,–,–,–,preferential mitochondrial localization,10800,180,retained selectivity,490,able to reduce or even overcome drug resistance,310,2620,880
–,"C(=C\c1c[nH]c2ccccc12)/c1cccnc1 [Compound 4, 3-[(E)-2-Pyridin-3-yl-ethenyl]-1H-indole]",90300,77.40,1170,5180,21000,17.97,5.50,16400,7830,–,–,–,–,–,–,–,–,–,–
–,"CC12CCC3C(CCC4C(C)(C(=O)OCCC[n+]5ccc(C=Cc6c[nH]c7ccccc67)cc5)CCCC34C)(CC1=O)C2.[Br-] (stereo not drawn) [Compound 17, 3-{4-[(E)-2-(1H-Indol-3-yl)ethenyl]-pyridinium-1-yl}-propyl (4α, 8β, 13β) 13-Methyl-16-oxo-17-norkauran-18-oate Bromide]",–,71.25,–,–,–,1.07,5.88,–,–,–,preferential mitochondrial localization,19900,280,retained selectivity,590,able to reduce or even overcome drug resistance,300,3390,760
–,"C=C1C[C@@]23CC[C@H]4[C@@](C)(CCC[C@@]4(C)C(=O)OCC[n+]4ccc(/C=C/c5c[nH]c6ccccc56)cc4)[C@@H]2CC[C@]1(O)C3.[Br-] [Compound 8, 2-{4-[(E)-2-(1H-Indol-3-yl)ethenyl]-pyridinium-1-yl}-ethyl (4α)-13-Hydroxykaur-16-en-18-oate Bromide]",–,5.87,–,–,–,0.92,1.34,–,–,–,–,11800,2010,–,1810,–,1860,8820,1810
–,C=C1C[C@@]23CC[C@H]4[C@@](C)(CCC[C@@]4(C)C(=O)OCCC[n+]4cccc(/C=C/c5c[nH]c6ccccc56)c4)[C@@H]2CC[C@]1(O)C3.[Br-] [Compound 18],–,11.82,–,–,–,1.19,2.84,–,–,–,–,26900,2280,–,9470,–,2710,9470,6660
–,"CC12CCC3C(CCC4C(C)(C(=O)OCC[n+]5ccc(C=Cc6c[nH]c7ccccc67)cc5)CCCC34C)(CC1=O)C2.[Br-] (stereo not drawn) [Compound 9, 2-{4-[(E)-2-(1H-Indol-3-yl)-ethenyl]pyridinium-1-yl}-ethyl (4α, 8β, 13β) 13-Methyl-16-oxo-17-norkauran-18-oate Bromide]",–,13.96,–,–,–,1.66,1.42,–,–,–,–,13000,930,–,1080,–,1540,9090,1560
